# Measurements published in PubChem BioAssay (NCI).
#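 Abbreviation: GI50, concentration required for 50% inhibition of growth. TGI denotes the concentration required for complete inhibition of growth.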
# Columns and labels:
# Assay in all cases: NCI-60 cell line screen, 384-well format
# LOX IMVI melanoma = tested on: LOX IMVI melanoma
# MALME-3M melanoma = tested on: MALME-3M melanoma
# HS 578T breast = tested on: HS 578T breast
# SR leukemia = tested on: SR leukemia
# T-47D breast = tested on: T-47D breast
# OVCAR-8 ovarian = tested on: OVCAR-8 ovarian
# MOLT-4 leukemia = tested on: MOLT-4 leukemia
# NCI-H322M lung = tested on: NCI-H322M lung
# RPMI-8226 leukemia = tested on: RPMI-8226 leukemia
# CAKI-1 renal = tested on: CAKI-1 renal
# HOP-62 NSCLC = tested on: HOP-62 NSCLC
# OVCAR-4 ovarian = tested on: OVCAR-4 ovarian
# K-562 leukemia = tested on: K-562 leukemia
# SK-MEL-28 melanoma = tested on: SK-MEL-28 melanoma
# SF-539 CNS = tested on: SF-539 CNS
# SF-268 CNS = tested on: SF-268 CNS
# BT-549 breast = tested on: BT-549 breast
# OVCAR-3 ovarian = tested on: OVCAR-3 ovarian
# ACHN renal = tested on: ACHN renal
# UACC-62 melanoma = tested on: UACC-62 melanoma
# NCI-H23 lung = tested on: NCI-H23 lung
# SN12C renal = tested on: SN12C renal
# RXF 393 renal = tested on: RXF 393 renal
# A498 renal = tested on: A498 renal
# SW-620 colon = tested on: SW-620 colon
# HOP-92 NSCLC = tested on: HOP-92 NSCLC
# PC-3 prostate = tested on: PC-3 prostate
# IGROV1 ovarian = tested on: IGROV1 ovarian
# UO-31 renal = tested on: UO-31 renal
# MCF7 breast = tested on: MCF7 breast
# MDA-MB-435 melanoma = tested on: MDA-MB-435 melanoma
# M14 melanoma = tested on: M14 melanoma
# KM12 colon = tested on: KM12 colon
# HL-60(TB) leukemia = tested on: HL-60(TB) leukemia
# 786-0 renal = tested on: 786-0 renal
# U251 glioblastoma = tested on: U251 glioblastoma
# OVCAR-5 ovarian = tested on: OVCAR-5 ovarian
# DU-145 prostate = tested on: DU-145 prostate
# NCI-H226 lung = tested on: NCI-H226 lung
# MDA-MB-468 breast = tested on: MDA-MB-468 breast
# TK-10 renal = tested on: TK-10 renal
# SK-MEL-5 melanoma = tested on: SK-MEL-5 melanoma
# NCI-H522 lung = tested on: NCI-H522 lung
# SF-295 CNS = tested on: SF-295 CNS
# UACC-257 melanoma = tested on: UACC-257 melanoma
# NCI/ADR-RES ovarian = tested on: NCI/ADR-RES ovarian
# SNB-75 CNS = tested on: SNB-75 CNS
# MDA-MB-231 breast = tested on: MDA-MB-231 breast
# CCRF-CEM leukemia = tested on: CCRF-CEM leukemia
# HT29 colon = tested on: HT29 colon
# SK-OV-3 ovarian = tested on: SK-OV-3 ovarian
# COLO 205 colon = tested on: COLO 205 colon
# EKVX NSCLC = tested on: EKVX NSCLC
# SNB-19 CNS = tested on: SNB-19 CNS
# HCC-2998 colon = tested on: HCC-2998 colon
# HCT-15 colon = tested on: HCT-15 colon
# NCI-H460 NSCLC = tested on: NCI-H460 NSCLC
# A549 NSCLC = tested on: A549 NSCLC
smiles,measurement,setting,value
Cc1c(CN2CCN(C(=O)[C@H](C)O)CC2)sc2c(N3CCOCC3)nc(-c3cnc(N)nc3)nc12,GI50,LOX IMVI melanoma,239 nM
same,TGI,LOX IMVI melanoma,1130 nM
same,GI50,MALME-3M melanoma,51 nM
same,TGI,MALME-3M melanoma,286 nM
same,GI50,HS 578T breast,139 nM
same,TGI,HS 578T breast,419 nM
same,GI50,SR leukemia,176 nM
same,TGI,SR leukemia,609 nM
same,GI50,T-47D breast,25.9 nM
same,TGI,T-47D breast,110 nM
same,GI50,OVCAR-8 ovarian,333 nM
same,TGI,OVCAR-8 ovarian,> 100000 nM
same,GI50,MOLT-4 leukemia,97.5 nM
same,TGI,MOLT-4 leukemia,282 nM
same,GI50,NCI-H322M lung,244 nM
same,TGI,NCI-H322M lung,6600 nM
same,GI50,RPMI-8226 leukemia,54.4 nM
same,TGI,RPMI-8226 leukemia,200 nM
same,GI50,CAKI-1 renal,197 nM
same,TGI,CAKI-1 renal,2820 nM
same,GI50,HOP-62 NSCLC,292 nM
same,TGI,HOP-62 NSCLC,2920 nM
same,GI50,OVCAR-4 ovarian,128 nM
same,TGI,OVCAR-4 ovarian,726 nM
same,GI50,K-562 leukemia,943 nM
same,TGI,K-562 leukemia,> 100000 nM
same,GI50,SK-MEL-28 melanoma,154 nM
same,TGI,SK-MEL-28 melanoma,719 nM
same,GI50,SF-539 CNS,300 nM
same,TGI,SF-539 CNS,3070 nM
same,GI50,SF-268 CNS,386 nM
same,TGI,SF-268 CNS,16600 nM
same,GI50,BT-549 breast,197 nM
same,TGI,BT-549 breast,922 nM
same,GI50,OVCAR-3 ovarian,211 nM
same,TGI,OVCAR-3 ovarian,1740 nM
same,GI50,ACHN renal,193 nM
same,TGI,ACHN renal,1150 nM
same,GI50,UACC-62 melanoma,211 nM
same,TGI,UACC-62 melanoma,1200 nM
same,GI50,NCI-H23 lung,179 nM
same,TGI,NCI-H23 lung,5800 nM
same,GI50,SN12C renal,148 nM
same,TGI,SN12C renal,694 nM
same,GI50,RXF 393 renal,352 nM
same,TGI,RXF 393 renal,2330 nM
same,GI50,A498 renal,88.2 nM
same,TGI,A498 renal,473 nM
same,GI50,SW-620 colon,594 nM
same,TGI,SW-620 colon,> 100000 nM
same,GI50,HOP-92 NSCLC,84.9 nM
same,TGI,HOP-92 NSCLC,446 nM
same,GI50,PC-3 prostate,149 nM
same,TGI,PC-3 prostate,2430 nM
same,GI50,IGROV1 ovarian,41.6 nM
same,TGI,IGROV1 ovarian,192 nM
same,GI50,UO-31 renal,295 nM
same,TGI,UO-31 renal,> 100000 nM
same,GI50,MCF7 breast,48.5 nM
same,TGI,MCF7 breast,> 100000 nM
same,GI50,MDA-MB-435 melanoma,230 nM
same,TGI,MDA-MB-435 melanoma,1530 nM
same,GI50,M14 melanoma,228 nM
same,TGI,M14 melanoma,3710 nM
same,GI50,KM12 colon,354 nM
same,TGI,KM12 colon,6970 nM
same,GI50,HL-60(TB) leukemia,121 nM
same,TGI,HL-60(TB) leukemia,577 nM
same,GI50,786-0 renal,350 nM
same,TGI,786-0 renal,2860 nM
same,GI50,U251 glioblastoma,1060 nM
same,TGI,U251 glioblastoma,> 100000 nM
same,GI50,OVCAR-5 ovarian,137 nM
same,TGI,OVCAR-5 ovarian,823 nM
same,GI50,DU-145 prostate,272 nM
same,TGI,DU-145 prostate,4100 nM
same,GI50,NCI-H226 lung,158 nM
same,TGI,NCI-H226 lung,784 nM
same,GI50,MDA-MB-468 breast,97.6 nM
same,TGI,MDA-MB-468 breast,352 nM
same,GI50,TK-10 renal,223 nM
same,TGI,TK-10 renal,1380 nM
same,GI50,SK-MEL-5 melanoma,119 nM
same,TGI,SK-MEL-5 melanoma,386 nM
same,GI50,NCI-H522 lung,208 nM
same,TGI,NCI-H522 lung,974 nM
same,GI50,SF-295 CNS,148 nM
same,TGI,SF-295 CNS,695 nM
same,GI50,UACC-257 melanoma,185 nM
same,TGI,UACC-257 melanoma,884 nM
same,GI50,NCI/ADR-RES ovarian,651 nM
same,TGI,NCI/ADR-RES ovarian,> 100000 nM
same,GI50,SNB-75 CNS,143 nM
same,TGI,SNB-75 CNS,775 nM
same,GI50,MDA-MB-231 breast,290 nM
same,TGI,MDA-MB-231 breast,> 100000 nM
same,GI50,CCRF-CEM leukemia,361 nM
same,TGI,CCRF-CEM leukemia,1920 nM
same,GI50,HT29 colon,246 nM
same,TGI,HT29 colon,> 100000 nM
same,GI50,SK-OV-3 ovarian,133 nM
same,TGI,SK-OV-3 ovarian,448 nM
same,GI50,COLO 205 colon,208 nM
same,TGI,COLO 205 colon,1370 nM
same,GI50,EKVX NSCLC,173 nM
same,TGI,EKVX NSCLC,1010 nM
same,GI50,SNB-19 CNS,2490 nM
same,TGI,SNB-19 CNS,> 100000 nM
same,GI50,HCC-2998 colon,404 nM
same,TGI,HCC-2998 colon,14700 nM
same,GI50,HCT-15 colon,198 nM
same,TGI,HCT-15 colon,> 100000 nM
same,GI50,NCI-H460 NSCLC,78.6 nM
same,TGI,NCI-H460 NSCLC,> 100000 nM
same,GI50,A549 NSCLC,261 nM
same,TGI,A549 NSCLC,2600 nM
